Assay [1] concerns the target T1, AR-LBD::TIF2-Box III-LXXLL-Peptide (Homo sapiens, UniProt P10275).
T1 construct: The pET28a-AR-LBD (622–919) construct [78] was a gift; made in house
T1 sequence (P10275 622-919): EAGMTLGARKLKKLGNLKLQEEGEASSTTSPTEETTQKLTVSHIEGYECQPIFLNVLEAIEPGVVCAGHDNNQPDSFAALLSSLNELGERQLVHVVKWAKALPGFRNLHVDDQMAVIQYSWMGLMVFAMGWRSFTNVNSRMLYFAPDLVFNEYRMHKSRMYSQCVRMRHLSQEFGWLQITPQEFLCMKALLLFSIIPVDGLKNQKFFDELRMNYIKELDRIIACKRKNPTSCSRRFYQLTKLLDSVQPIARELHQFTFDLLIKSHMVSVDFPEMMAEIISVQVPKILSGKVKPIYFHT
Put plainly: AR-LBD::TIF2-Box III-LXXLL-peptide AlphaScreen binding assay. The conditions noted are these: DHT-induced TIF2 box 3 LXXLL-peptide binding to recombinant AR-LBD. From the text:
The pET28a-AR-LBD (622–919) construct was a gift from Dr. Fletterick and Dr. Nguyen of University of California San Francisco. Biotinylated (Biotin-HN-[…]-CONH2) and non-biotinylated TIF2-box-III (738–756) peptide (H2N-[…]-CONH2) were synthesized by the Peptide & Peptoid Synthesis Facility, at the University of Pittsburgh Health Sciences Core Research Facilities. ALPHAScreen streptavidin donor beads (SA-DB) and nickel chelate acceptor beads (Ni-AB) were purchased from Perkin Elmer (Waltham, MA). The assay was performed in 384-well white opaque plates (Greiner BioOne, #781080). […] 18 uL of the SA-DB bound biotinylated TIF2 peptide mixture was added to the assay plate before 5 μL of compounds were transferred into assay wells and 27 μL of the AlphaScreen donor and acceptor bead mixture was added to the plate. 32 wells containing 0.5% DMSO provided maximum controls and 32 wells containing a 500-fold excess of unlabeled TIF2-box-III (75 μM) were used as minimum controls. The combined bead-protein-peptide-compound mixture was incubated for 1 h at room temperature in the dark, and then the RLU’s were acquired at 520 nm after excitation at 680 nm on an Envision plate reader (Perkin Elmer, Waltham, MA) as described previously.
In general terms: In Alpha technology, singlet oxygen from a donor bead excites a nearby acceptor bead.

The next assay has as its target T2, AR-TIF2 PPI (Homo sapiens, UniProt P10275).
T2 construct: expressed in transfected cells; host or cells: U-2 OS osteosarcoma cells, co-infected with recombinant adenoviruses
T2 sequence (P10275 663-920 limits assumed): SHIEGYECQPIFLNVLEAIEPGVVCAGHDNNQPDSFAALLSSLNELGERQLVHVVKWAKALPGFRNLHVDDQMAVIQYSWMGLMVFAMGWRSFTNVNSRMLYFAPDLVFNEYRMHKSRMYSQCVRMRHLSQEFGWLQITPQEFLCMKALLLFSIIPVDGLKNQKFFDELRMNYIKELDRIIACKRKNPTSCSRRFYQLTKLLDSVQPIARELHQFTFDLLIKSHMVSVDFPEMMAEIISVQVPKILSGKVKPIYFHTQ
The assay can be described thus: AR-TIF2 PPI biosensor (PPIB) HCS assay, disruption of pre-formed AR-TIF2 PPI complexes. The assay is classed as cell-based. The note with it: U-2 OS cells, 25 nM DHT 90 min prior to compounds for 3 h. Here is the method: Daughter plates containing 2 μL of the serially diluted compounds in DMSO were prepared and replicated from 384-well serial dilution master plates using a Janus MDT platform outfitted with a 384-well transfer head. Aluminum adhesive plate seals were applied, and plates were stored at −20 °C. For bioassay testing, daughter plates were withdrawn from −20 °C storage, thawed to ambient temperature, and centrifuged for 1 min at 100 × g, and plate seals were removed before 38 μL of serum-free media (SFM) was transferred into wells using a Matrix pipettor (ThermoFisher, Waltham, MA), to generate an intermediate stock concentration of validation compounds ranging from 0.977 to 500 μM (5.0% DMSO). Diluted compounds were mixed by repeated aspiration and dispensation using a 384-well P30 dispensing head on the Janus MDT platform and then, 5 μL of diluted compounds was transferred to assay plate wells to provide a final concentration range from 0.0977 to 50 μM (0.5% DMSO).
The AR-TIF2 PPIB HCS assay was performed in U-2 OS osteosarcoma cells as described previously. Briefly, U-2 OS cells were coinfected with recombinant adenovirus biosensor expression constructs and seeded at 2500 cells per well in 384-well collagen-coated microplates (Greiner BioOne #781956) and plates were incubated overnight at 37°C in 5% CO2 and 95% humidity. […] After the appropriate time, assay plates were fixed by transfer of 50 μL of pre-warmed (37°C) 7.4% formaldehyde and 2 μg/mL Hoechst 33342 in PBS and incubation at room temperature for 30 min. Liquid was aspirated, plates were washed twice with 85 μL PBS, leaving the final wash in the plate. Plates were sealed with adhesive aluminum plate seals, and fluorescent images of three fields of view were acquired in the DAPI (Hoechst stained nuclei), FITC (TIF2-GFP) and Texas Red (AR-RFP) channels on an ImageXpress Micro (IXM) automated HCS platform (Molecular Devices LLC, Sunnyvale, CA) using a 10X Plan Fluor 0.3 NA objective. Images were analyzed using the Translocation Enhanced (TE) image analysis module of the MetaXpress software as described previously.
In 384-well assays, DMSO minimum (n = 32) and maximum (n = 32) plate control wells were utilized to calculate signal-to-background ratios (S:B) and Z’-factor coefficient assay performance quality control statistics, and to normalize the signals of compound treated wells and to represent 0% and 100% respectively. For the 96-well AR-LBD H^3-DHT radioligand binding assay, eight minimum and maximum plate control wells were utilized to normalize the data. For the PC cell line growth inhibition assays we used the DMSO control data from the T0 and T72 assay plates to assess the dynamic range of the T0 to T72 cell growth, and to calculate S:B ratios and Z’-factor coefficient statistics for the assay signal window (T0 to T72). To normalize the 72 h compound exposure PC growth inhibition data, the signals from the compound treated wells were processed and expressed as% of the T72 DMSO plate controls. IC50 and GI50 values for each of the bioassays were calculated using Graph-Pad Prism 9 software to plot and fit data to curves using the Sigmoidal dose response variable slope equation Y = Bottom + [Top-Bottom]/ [1 + 10^^(LogEC50-X)*HillSlope].

Structures are written as SMILES.

A word on the IC50: it is the concentration needed to halve the response being measured. Turning to `Cc1ccccc1-c1cc(O)c2c(c1)CN(c1nc(C(N)=O)cs1)CCO2` [S1–1], the IC50 was determined as 21.4 µM in assay [1] and 26.6 µM against AR-TIF2 PPI.

For `Cc1ccccc1-c1cc(O)c2c(c1)CN(c1nccs1)CCO2` [S1–3], the IC50 in assay [1] stood at 44.1 µM; against AR-TIF2 PPI it was 63.1 µM; against AR-TIF2 PPI (listed as S1-3), 63 µM.

On to `Cc1nsc(NC(=O)N2CCC(Sc3ccccc3C)CC2)n1` [S2–6], for which the half-maximal inhibitory concentration (IC50) in assay [1] turned out to be 64.2 µM; on AR-TIF2 PPI it was 5.8 µM.

As for `Cc1c(-c2ccccc2F)[nH]c2ccc(CNC(=O)CCc3cn[nH]c3)cc12` [S3–11], the results for the 50% inhibitory concentration (IC50) (in assay [1]; against AR-TIF2 PPI) were 88.3 µM and 29.1 µM, respectively.

Regarding `Cc1c(-c2ccccc2F)[nH]c2ccc(CNC(=O)CCc3cnccn3)cc12` [S3–12], the half-maximal inhibitory concentration (IC50) at AR-TIF2 PPI was 26.7 µM.

Regarding `CC(=O)NCCC(=O)NCc1ccc2[nH]c(-c3ccccc3F)c(C)c2c1` [S3–13], the IC50 in assay [1] was determined as 91.6 µM; at AR-TIF2 PPI, 41.3 µM.

Regarding `Cc1c(-c2ccccc2F)[nH]c2ccc(CNC(=O)c3ccc(CO)o3)cc12` [S3–14], the values for the 50% inhibitory concentration (IC50) (in assay [1]; against AR-TIF2 PPI) were 28.3 µM and 18 µM, respectively.

On to `Cc1c(-c2ccc(F)cc2)[nH]c2ccc(CNC(=O)c3ccc(CO)o3)cc12` [S3–15], for which the figures for the IC50 (in assay [1]; against AR-TIF2 PPI) were 19.6 µM and 26.2 µM, respectively.

The values above are taken from article PMC12366525, “Characterization of allosteric modulators that disrupt androgen receptor co-activator protein-protein interactions to alter transactivation–Drug leads for metastatic castration resistant prostate cancer” (SLAS discovery : advancing life sciences R & D, 2023).
